Laboratory results reported in publication PMC4057637, “Efficacy of novel antibacterial compounds targeting histidine kinase YycG protein” (Applied Microbiology and Biotechnology, 2014).
≈ marks a conversion by molar mass, not a printed value.

Tests used:
Format in all cases: cell-based
Cytotoxicity, MTT assay = settings: African green monkey, Vero 76 cells
Description: Vero 76 cells (African green monkey cells) were used to determine the cytotoxicity of the derivatives with the Cell Proliferation Kit I (MTT) (Roche, Indianapolis, USA). The Vero cells were grown in Dulbecco’s modified Eagle’s medium (DMEM), supplemented with 5 % fetal calf serum, 100 U/ml penicillin, […] streptomycin, and 2 mM L-glutamine. After culturing in 5 % CO2 at 37 °C for 48 h, the cells were harvested and dispensed into 96-well cell culture plates containing 5 × 10^4 cells per well in 100 μl. The cells were co-incubated with serial twofold dilutions of derivatives from 200 to 6.25 μM (six different concentrations) for 24 h at 37 °C in 5 % CO2. Then, 10 μl of the MTT labeling reagent (final concentration 0.5 mg/ml) was added to each well and incubated for 4 h. The solubilization solution (100 μl per well) was added to dissolve the purple formazan salts generated in the viable cells, and the absorbance of each well was measured at 595 nm. Cells treated with the solvent (0.1 % DMSO) were used as a negative control and the cells cultured only with DMEM medium served as a blank control. The inhibitory rate was calculated as follows: Inhibitoryrate%=Ocontrol−ODtest/ODcontrol×100
CC50 was defined as the concentration of the derivatives that inhibited the Vero cell growth by 50 % and was calculated with the Origin v8.0 software (Origin Lab, Northampton, USA) (Qin et al. [2006]).

[1] = tested on: S. epidermidis ATCC 35984 biofilms; test: Microtiter plate assay of S. epidermidis biofilms (crystal violet, MBEC); settings: 6-h-old (immature) biofilms
Description: The effects of the derivatives on immature (6-h-old) biofilms and mature (24-h-old) biofilms of S. epidermidis ATCC 35984 were detected by using a semiquantitative microtiter plate assay (Stepanovic et al. [2007]). An overnight culture of bacteria was inoculated 1:200 into TSB medium containing 0.25 % glucose and statically incubated in a polystyrene 96-well plate (200 μl per well) at 37 °C for 6 or 24 h. The medium containing any nonadherent bacteria was then removed, and serial dilutions of derivatives in 200 μl fresh TSB were added to the wells and incubated for another 16 h at 37 °C. The wells were then washed gently three times with phosphate buffered saline (PBS), air-dried, fixed with methanol, and stained with 2 % (w/v) crystal violet. The staining was visually assessed and scanned at 570 nm using a 96-well plate spectrophotometer (DTX880, Beckman Coulter, USA), and the minimal biofilm eradication concentration (MBEC) was measured (Ceri et al. [1999]).

[2] = tested on: S. epidermidis ATCC 12228; test: MIC, broth dilution; settings: Staphylococcus epidermidis, ATCC12228
Description: (§1) MICs of the derivatives for S. epidermidis and S. aureus were determined by the broth dilution method according to the National Committee for Clinical Laboratory (NCCLS) recommendations (Turnidge and Bordash [2007]). Twofold dilutions of the derivatives in tubes containing 4 ml of Mueller-Hinton broth (MH, Sigma, Germany) were made to concentrations from 200 to 0.39 μM. Overnight cultures of the bacteria were adjusted to the 0.5 McFarland standards and inoculated 1:200 into the MH broth and then incubated at 37 °C for 16–20 h. The lowest concentration inhibiting visible growth of the bacteria was recorded as minimal inhibitory concentration (MIC).

S. aureus ATCC 25923 = test: MIC, broth dilution; settings: Staphylococcus aureus, ATCC25923
Description: as §1

S. aureus ATCC 49230 = test: MIC, broth dilution; settings: Staphylococcus aureus, ATCC49230
Description: as §1

[3] = tested on: S. epidermidis ATCC 35984; test: MIC and MBC assays, broth dilution; settings: for MBC / MIC/MBC: S. epidermidis ATCC 35984; for MIC: ATCC35984, S. epidermidis ATCC 35984, MH broth
Description: as §1

Hemolytic activity = settings: healthy human erythrocytes, 5 % (v/v) suspension; for hemolysis at 1 h: at MIC
Description: The hemolytic activities of the derivatives on healthy human erythrocytes were also determined. Healthy human erythrocytes resuspended in normal saline (NS) at 5 % (v/v) were co-incubated with the derivatives at final concentrations of MIC, 4 × MIC, or 200 μM for 1 h at 37 °C in 96-well microtiter plates. The suspensions were centrifuged at 350 g for 10 min and the supernatant (100 μl) was transferred to new wells and measured at 570 nm on a spectrophotometer (Benchmark Microplate Reader; Bio-Rad, Hercules, CA, USA). The percentage of hemolysis was calculated by normalizing against the absorbance of erythrocytes treated with 1 % Triton X-100, which caused complete hemolysis; 0.1 % DMSO-treated cells were used as a control (Miyoshi et al. [1997]). The experiment was performed in quadruplicate wells and repeated independently three times.

[4] = tested on: mature (24-h-old) biofilms of S. epidermidis ATCC 35984; test: Bacterial viability in mature biofilms by CLSM with Live/Dead staining; settings: 4 × MIC, 16 h, SYTO9/PI
Description: A diluted overnight culture of the bacteria was inoculated into cell culture glass bottom dishes (WPI, USA) and incubated at 37 °C for 24 h. […] The biofilms were washed with PBS and stained with SYTO9 and propidium iodide (PI), both of which were used at a concentration of 1 μM. SYTO9-stained live cells and PI-stained cells dead in biofilms were visualized by a Leica TCS SP5 confocal laser scanning microscope with a ×63 1.4-NA oil immersion objective. Three-dimensional biofilm images were created by IMARIS 7.0.0 software (Bitplane).

[5] = Staphylococcus epidermidis, ATCC35984

## CCc1ccccc1/N=C1\S/C(=C\c2ccc(OCC(=O)O)c(OC)c2)C(=O)N1c1ccccc1CC [Compound 2, {2-{4-{3-(2-ethylphenyl)-2-[(2-ethylphenyl)imino]-4-oxothiazolidin-5-ylidene}methyl}-2-methoxyphenoxy}acetic acid]
Cytotoxicity, MTT assay
  CC50 at 24 h: 50 µM
[1]
  MBEC: 100.0 µM
[2]
  MIC: 25 µM (≈ 12.9 µg/mL)
S. aureus ATCC 25923
  MIC: 50 µM (≈ 25.8 µg/mL)
S. aureus ATCC 49230
  MIC: 50 µM (≈ 25.8 µg/mL)
[3]
  MBC: 100.0 µM (≈ 51.7 µg/mL)
  MIC/MBC: 1/4
[3]; Staphylococcus epidermidis
  MIC: 25 µM (≈ 12.9 µg/mL)
[3]; [5]
  MBC: 100 µM (≈ 51.7 µg/mL)
Hemolytic activity
  hemolysis at 1 h, 200 µM: 5.24 ± 0.21%
  hemolysis at 1 h: 2.31 ± 0.35%

## O=C(O)c1cccc(-c2ccc(C=C3SC(=Nc4ccc(Cl)cc4)N(c4ccc(Cl)cc4)C3=O)o2)c1 [H2-38, 3-{5-{{3-(4-chlorophenyl)-2-[(4-chlorophenyl)imino]-4-oxothiazolidin-5-ylidene}methyl}furan-2-yl}benzoic acid]
Cytotoxicity, MTT assay
  CC50 at 24 h: > 200 µM
[1]
  MBEC: 12.5 µM
[4]
  proportion of viable cells in mature biofilms: 42.3%
[2]
  MIC: 1.5 µM (≈ 0.803 µg/mL)
S. aureus ATCC 25923
  MIC: 1.5 µM (≈ 0.803 µg/mL)
S. aureus ATCC 49230
  MIC: 1.5 µM (≈ 0.803 µg/mL)
[3]
  MIC/MBC: 1/8
[3]; [5]
  MBC: 12.5 µM (≈ 6.69 µg/mL)
Hemolytic activity
  hemolysis at 1 h, 200 µM: 0.28 ± 0.03%
  hemolysis at 1 h: 0.14 ± 0.03%

## O=C(O)c1ccc(-c2ccc(C=C3SC(=Nc4ccc(Cl)cc4)N(c4ccc(Cl)cc4)C3=O)o2)cc1 [H2-39, 4-{5-{{3-(4-chlorophenyl)-2-[(4-chlorophenyl)imino]-4-oxothiazolidin-5-ylidene}methyl}furan-2-yl}benzoic acid]
Cytotoxicity, MTT assay
  CC50 at 24 h: > 200 µM
[1]
  MBEC: 12.5 µM
[4]
  proportion of viable cells in mature biofilms: 55.6%
[2]
  MIC: 1.5 µM (≈ 0.803 µg/mL)
S. aureus ATCC 25923
  MIC: 1.5 µM (≈ 0.803 µg/mL)
S. aureus ATCC 49230
  MIC: 1.5 µM (≈ 0.803 µg/mL)
[3]
  MIC/MBC: 1/8
[3]; [5]
  MBC: 12.5 µM (≈ 6.69 µg/mL)
Hemolytic activity
  hemolysis at 1 h, 200 µM: 0.41 ± 0.05%
  hemolysis at 1 h: 0.12 ± 0.03%

## O=C(O)c1ccc(-c2ccc(/C=C3\S/C(=N\c4ccccc4)N(c4ccc(Cl)cc4)C3=O)o2)cc1 [H2-57, 4-{5-{{3-(4-chlorophenyl)-2-[(4-phenyl)imino]-4-oxothiazolidin-5-ylidene}methyl}furan-2-yl}benzoic acid]
Cytotoxicity, MTT assay
  CC50 at 24 h: > 200 µM
[1]
  MBEC: 12.5 µM
[4]
  proportion of viable cells in mature biofilms: 17.1%
[2]
  MIC: 3.1 µM (≈ 1.55 µg/mL)
S. aureus ATCC 25923
  MIC: 3.1 µM (≈ 1.55 µg/mL)
S. aureus ATCC 49230
  MIC: 1.5 µM (≈ 0.751 µg/mL)
[3]
  MIC/MBC: 1/4
[3]; Staphylococcus epidermidis
  MIC: ≤ 3.1 µM
[3]; [5]
  MBC: 12.5 µM (≈ 6.26 µg/mL)
Hemolytic activity
  hemolysis at 1 h, 200 µM: 0.16 ± 0.04%
  hemolysis at 1 h: 0.14 ± 0.03%

## O=C(O)c1ccc(-c2ccc(C=C3SC(=Nc4ccc(F)cc4)N(c4ccc(F)cc4)C3=O)s2)cc1 [H2-60, 4-{5-{{3-(4-fluorophenyl)-2-[(4-fluorophenyl)imino]-4-oxothiazolidin-5-ylidene}methyl}thiophene-2-yl}benzoic acid]
Cytotoxicity, MTT assay
  CC50 at 24 h: > 200 µM
[1]
  MBEC: 12.5 µM
[4]
  proportion of viable cells in mature biofilms: 14%
[2]
  MIC: 1.5 µM (≈ 0.778 µg/mL)
S. aureus ATCC 25923
  MIC: 1.5 µM (≈ 0.778 µg/mL)
S. aureus ATCC 49230
  MIC: 1.5 µM (≈ 0.778 µg/mL)
[3]
  MIC/MBC: 1/8
[3]; [5]
  MBC: 12.5 µM (≈ 6.48 µg/mL)
Hemolytic activity
  hemolysis at 1 h, 200 µM: 0.84 ± 0.03%
  hemolysis at 1 h: 0.52 ± 0.06%

## O=C(O)COc1ccc(C=C2SC(=Nc3ccc(Cl)cc3)N(c3ccc(Cl)cc3)C2=O)cc1 [H2-74, 2-{4-{[3-(4-chlorophenyl)-2-[(4-chlorophenyl)imino]-4-oxothiazolidin-5-ylidene}methyl}phenoxy}acetic acid]
Cytotoxicity, MTT assay
  CC50 at 24 h: > 200 µM
[1]
  MBEC: 50.0 µM
[4]
  proportion of viable cells in mature biofilms: 32.5%
[2]
  MIC: 1.5 µM (≈ 0.749 µg/mL)
S. aureus ATCC 25923
  MIC: 3.1 µM (≈ 1.55 µg/mL)
S. aureus ATCC 49230
  MIC: 1.5 µM (≈ 0.749 µg/mL)
[3]
  MIC/MBC: 1/16
[3]; [5]
  MBC: 25 µM (≈ 12.5 µg/mL)
Hemolytic activity
  hemolysis at 1 h, 200 µM: 0.42 ± 0.03%
  hemolysis at 1 h: 0.14 ± 0.03%

## O=C(O)c1ccc(-c2ccc(/C=C3\S/C(=N\c4ccccc4)N(c4ccc(F)cc4)C3=O)s2)cc1 [H2-81, 4-{5-{{3-(4-fluorophenyl)-2-[(4-phenyl)imino]-4-oxothiazolidin-5-ylidene}methyl}thiophene-2-yl}benzoic acid]
Cytotoxicity, MTT assay
  CC50 at 24 h: > 200 µM
[1]
  MBEC: 6.3 µM
[4]
  proportion of viable cells in mature biofilms: 12.3%
[2]
  MIC: 1.5 µM (≈ 0.751 µg/mL)
S. aureus ATCC 25923
  MIC: 1.5 µM (≈ 0.751 µg/mL)
S. aureus ATCC 49230
  MIC: 1.5 µM (≈ 0.751 µg/mL)
[3]
  MIC/MBC: 1/4
[3]; [5]
  MBC: 6.3 µM (≈ 3.15 µg/mL)
Hemolytic activity
  hemolysis at 1 h, 200 µM: 0.1 ± 0.03%
  hemolysis at 1 h: 0.06 ± 0.09%
